Measurements taken from article PMC11073449 (Science (New York, N.Y.), 2023).
Positions count from the first letter of the chain named.

Legend:
[1] = biological target: T1, Aster-A (Mus musculus, UniProt Q8VEF1, L400A/F405I); assay: CD thermal stabilization; type: binding
T1 sequence (Q8VEF1 334-562 L400A/F405I): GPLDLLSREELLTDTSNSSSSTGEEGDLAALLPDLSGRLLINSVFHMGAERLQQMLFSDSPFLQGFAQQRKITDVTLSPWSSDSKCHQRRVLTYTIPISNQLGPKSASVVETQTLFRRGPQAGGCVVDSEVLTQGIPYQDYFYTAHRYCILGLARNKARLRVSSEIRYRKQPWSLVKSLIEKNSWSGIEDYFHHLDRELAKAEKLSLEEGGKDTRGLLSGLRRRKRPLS

[2] = biological target: T2, Aster-A (Mus musculus, UniProt Q8VEF1, L400A); assay: CD thermal stabilization; type: binding
T2 sequence (Q8VEF1 334-562 L400A): T1 sequence (Q8VEF1 334-562 L400A/F405I) with I72F

CD thermal stabilization [2]: but the stability was increased by EZ
Compound: O=C1[C@H](CC[C@H](O)c2ccc(F)cc2)[C@@H](c2ccc(O)cc2)N1c1ccc(F)cc1 [EZ, ezetimibe]
CD thermal stabilization [1]: The Aster-A mutant L400A_F405I, as well as the single mutant L400A, reduced Aster-A thermal stability
